Tests used:
[1] = Biodistribution in eye of mouse B16F0 cells implanted C57BL/6J mouse assessed per gram of tissue at 0.4 to 5.5 MBq, iv after 6 hrs by gamma counter; format: ADME, organism-based; settings: in vivo
[2] = Biodistribution in eye of mouse B16F0 cells implanted C57BL/6J mouse assessed per gram of tissue at 0.4 to 5.5 MBq, iv after 3 hrs by gamma counter; format: ADME, organism-based; settings: in vivo
[3] = Lipophilicity, log P at pH 7.5; format: physicochemical; settings: buffer
[4] = test system: Stomach; assay: Biodistribution in stomach of mouse B16F0 cells implanted C57BL/6J mouse assessed per gram of tissue at 0.4 to 5.5 MBq, iv after 1 hr by gamma counter; format: ADME, organism-based; settings: in vivo
[5] = test system: Stomach; assay: Biodistribution in stomach of mouse B16F0 cells implanted C57BL/6J mouse assessed per gram of tissue at 0.4 to 5.5 MBq, iv after 0.25 hrs by gamma counter; format: ADME, organism-based; settings: in vivo
[6] = test system: Bone; assay: Biodistribution in bone of mouse B16F0 cells implanted C57BL/6J mouse assessed per gram of tissue at 0.4 to 5.5 MBq, iv after 0.25 hrs by gamma counter; format: ADME, organism-based, Bone element; settings: in vivo
[7] = Biodistribution in eye of mouse B16F0 cells implanted C57BL/6J mouse assessed per gram of tissue at 0.4 to 5.5 MBq, iv after 1 hr by gamma counter; format: ADME, organism-based; settings: in vivo
[8] = test system: Lung; assay: Biodistribution in lung of mouse B16F0 cells implanted C57BL/6J mouse assessed per gram of tissue at 0.4 to 5.5 MBq, iv after 6 hrs by gamma counter; format: ADME, organism-based; settings: in vivo
[9] = Biodistribution in tumor of mouse B16F0 cells implanted C57BL/6J mouse assessed per gram of tissue at 0.4 to 5.5 MBq, iv after 1 hr by gamma counter; format: ADME, organism-based, Neoplasm; settings: in vivo
[10] = test system: Intestine; assay: Biodistribution in intestine of mouse B16F0 cells implanted C57BL/6J mouse assessed per gram of tissue at 0.4 to 5.5 MBq, iv after 0.25 hrs by gamma counter; format: ADME, organism-based; settings: in vivo
[11] = test system: Bone; assay: Biodistribution in bone of mouse B16F0 cells implanted C57BL/6J mouse assessed per gram of tissue at 0.4 to 5.5 MBq, iv after 1 hr by gamma counter; format: ADME, organism-based, Bone element; settings: in vivo
[12] = test system: Intestine; assay: Biodistribution in intestine of mouse B16F0 cells implanted C57BL/6J mouse assessed per gram of tissue at 0.4 to 5.5 MBq, iv after 3 hrs by gamma counter; format: ADME, organism-based; settings: in vivo
[13] = test system: Spleen; assay: Biodistribution in spleen of mouse B16F0 cells implanted C57BL/6J mouse assessed per gram of tissue at 0.4 to 5.5 MBq, iv after 6 hrs by gamma counter; format: ADME, organism-based; settings: in vivo
[14] = test system: Lung; assay: Biodistribution in lung of mouse B16F0 cells implanted C57BL/6J mouse assessed per gram of tissue at 0.4 to 5.5 MBq, iv after 1 hr by gamma counter; format: ADME, organism-based; settings: in vivo
[15] = test system: Spleen; assay: Biodistribution in spleen of mouse B16F0 cells implanted C57BL/6J mouse assessed per gram of tissue at 0.4 to 5.5 MBq, iv after 3 hrs by gamma counter; format: ADME, organism-based; settings: in vivo
[16] = test system: Lung; assay: Biodistribution in lung of mouse B16F0 cells implanted C57BL/6J mouse assessed per gram of tissue at 0.4 to 5.5 MBq, iv after 3 hrs by gamma counter; format: ADME, organism-based; settings: in vivo
[17] = test system: Thyroid gland; assay: Biodistribution in thyroid of mouse B16F0 cells implanted C57BL/6J mouse assessed per gram of tissue at 0.4 to 5.5 MBq, iv after 6 hrs by gamma counter; format: ADME, organism-based; settings: in vivo
[18] = test system: Thyroid gland; assay: Biodistribution in thyroid of mouse B16F0 cells implanted C57BL/6J mouse assessed per gram of tissue at 0.4 to 5.5 MBq, iv after 0.25 hrs by gamma counter; format: ADME, organism-based; settings: in vivo
[19] = test system: Spleen; assay: Biodistribution in spleen of mouse B16F0 cells implanted C57BL/6J mouse assessed per gram of tissue at 0.4 to 5.5 MBq, iv after 0.25 hrs by gamma counter; format: ADME, organism-based; settings: in vivo
[20] = test system: Spleen; assay: Biodistribution in spleen of mouse B16F0 cells implanted C57BL/6J mouse assessed per gram of tissue at 0.4 to 5.5 MBq, iv after 1 hr by gamma counter; format: ADME, organism-based; settings: in vivo
[21] = test system: Intestine; assay: Biodistribution in intestine of mouse B16F0 cells implanted C57BL/6J mouse assessed per gram of tissue at 0.4 to 5.5 MBq, iv after 1 hr by gamma counter; format: ADME, organism-based; settings: in vivo
[22] = test system: Bone; assay: Biodistribution in bone of mouse B16F0 cells implanted C57BL/6J mouse assessed per gram of tissue at 0.4 to 5.5 MBq, iv after 3 hrs by gamma counter; format: ADME, organism-based, Bone element; settings: in vivo
[23] = test system: Bone; assay: Biodistribution in bone of mouse B16F0 cells implanted C57BL/6J mouse assessed per gram of tissue at 0.4 to 5.5 MBq, iv after 6 hrs by gamma counter; format: ADME, organism-based, Bone element; settings: in vivo
[24] = test system: Stomach; assay: Biodistribution in stomach of mouse B16F0 cells implanted C57BL/6J mouse assessed per gram of tissue at 0.4 to 5.5 MBq, iv after 3 hrs by gamma counter; format: ADME, organism-based; settings: in vivo
[25] = test system: Stomach; assay: Biodistribution in stomach of mouse B16F0 cells implanted C57BL/6J mouse assessed per gram of tissue at 0.4 to 5.5 MBq, iv after 6 hrs by gamma counter; format: ADME, organism-based; settings: in vivo
[26] = Biodistribution in tumor of mouse B16F0 cells implanted C57BL/6J mouse assessed per gram of tissue at 0.4 to 5.5 MBq, iv after 6 hrs by gamma counter; format: ADME, organism-based, Neoplasm; settings: in vivo
[27] = Biodistribution in eye of mouse B16F0 cells implanted C57BL/6J mouse assessed per gram of tissue at 0.4 to 5.5 MBq, iv after 0.25 hrs by gamma counter; format: ADME, organism-based; settings: in vivo
[28] = test system: Thyroid gland; assay: Biodistribution in thyroid of mouse B16F0 cells implanted C57BL/6J mouse assessed per gram of tissue at 0.4 to 5.5 MBq, iv after 3 hrs by gamma counter; format: ADME, organism-based; settings: in vivo
[29] = test system: Intestine; assay: Biodistribution in intestine of mouse B16F0 cells implanted C57BL/6J mouse assessed per gram of tissue at 0.4 to 5.5 MBq, iv after 6 hrs by gamma counter; format: ADME, organism-based; settings: in vivo
[30] = test system: Thyroid gland; assay: Biodistribution in thyroid of mouse B16F0 cells implanted C57BL/6J mouse assessed per gram of tissue at 0.4 to 5.5 MBq, iv after 1 hr by gamma counter; format: ADME, organism-based; settings: in vivo
[31] = Biodistribution in tumor of mouse B16F0 cells implanted C57BL/6J mouse assessed per gram of tissue at 0.4 to 5.5 MBq, iv after 3 hrs by gamma counter; format: ADME, organism-based, Neoplasm; settings: in vivo
[32] = test system: Lung; assay: Biodistribution in lung of mouse B16F0 cells implanted C57BL/6J mouse assessed per gram of tissue at 0.4 to 5.5 MBq, iv after 0.25 hrs by gamma counter; format: ADME, organism-based; settings: in vivo
[33] = Biodistribution in tumor of mouse B16F0 cells implanted C57BL/6J mouse assessed per gram of tissue at 0.4 to 5.5 MBq, iv after 0.25 hrs by gamma counter; format: ADME, organism-based, Neoplasm; settings: in vivo

Drug uptake [1]: 16.5% | Drug uptake [2]: 18.8% | logD [3]: 1.22 | Drug uptake [4]: 5.3% | Drug uptake [5]: 13.2% | Drug uptake [6]: 4% | Drug uptake [7]: 23.7% | Drug uptake [8]: 0.14% | Drug uptake [9]: 12.2% | Drug uptake [10]: 7% | Drug uptake [11]: 1.5% | Drug uptake [12]: 0.72% | Drug uptake [13]: 1.3% | Drug uptake [14]: 1.8% | Drug uptake [15]: 2.3% | Drug uptake [16]: 0.37% | Drug uptake [17]: 1% | Drug uptake [18]: 4.8% | Drug uptake [19]: 10.3% | Drug uptake [20]: 3.2% | Drug uptake [21]: 2.9% | Drug uptake [22]: 0.77% | Drug uptake [23]: 0.43% | Drug uptake [24]: 0.82% | Drug uptake [25]: 0.3% | Drug uptake [26]: 7.2% | Drug uptake [27]: 17.3% | Drug uptake [28]: 1.5% | Drug uptake [29]: 0.23% | Drug uptake [30]: 2.2% | Drug uptake [31]: 8.8% | Drug uptake [32]: 5.7% | Drug uptake [33]: 7%
SMILES: CCN(CC)CCNC(=O)c1ccnc([18F])c1

Source: ChEMBL document CHEMBL1152441, “Discovery of [18F]N-(2-(diethylamino)ethyl)-6-fluoronicotinamide: a melanoma positron emission tomography imaging radiotracer with high tumor to body contrast ratio and rapid renal clearance” (J Med Chem, 2009)
